Results: patent US6579708B1, “Human uridine kinase” (SmithKline Beecham Corporation, priority 2000, dated 2003)
Like-named read-outs stand apart in the source and are kept apart here.

B1: Human Uridine Kinase: novel human UDK gene product expressed in E.coli from pET 16b, purified by Ni-NTA affinity chromatography (protein)
chain: MASAGGEDCESPAPEADRPHQRPFLIGVSGGTASGKSTVCEKIMELLGQNEVEQRQRKVVILSQDRFYKVLTAEQKAKALKGQYNFDHPDAFDNDLMHRTLKNIVEGKTVEVPTYDFVTHSRLPETTVVYPADVVLFEGILVFYSQEIRDMFHLRLFVDTDSDVRLSRRVLRDVRRGRDLEQILTQYTTFVKPAFEEFCLPTKKYADVIIPRGVDNMVAINLIVQHIQDILNGDICKWHRGGSNGRSYKRTFSEPGDHPG
modifications: His tag from pET16b; Human

Key:
[1] = system: uridine kinase; conditions: cited from earlier work
[2] = system: uridine kinase; conditions: cited from earlier work; remark: listed apart in the source
[3] = Characterization of recombinant His-tagged human uridine kinase expressed in E.coli; type: biochemical
Description: The novel human UDK gene has been cloned into an expression vector pET 16b (Novagen) with a His tag at its NH2-terminus. The gene was expressed in E.coli and has been purified to >95% purity by Ni-NTA affinity chromatography.

Molecule	Km ([1]; normal rat liver)	Km ([1]; rapidly growing hepatoma 3924A)	Km ([2]; normal ovary)	Km ([2]; ovarian carcinoma)	Optimum pH [3]	Specific Activity ([3]; purified enzyme, His tag at NH2-terminus)	enzymatic activity ([3]; with the His tag)
O=c1ccn([C@@H]2O[C@H](CO)[C@@H](O)[C@H]2O)c(=O)[nH]1 [uridine]	5000 µM	800 µM	11500 µM	500 µM			
B1					9.0	678 nmol/min/mg protein	good enzymatic activity
